Several values for one entry are separate records, joined by “and”; a condition that tells them apart may be missing. Equal entries are not always repeated. Where two headings read alike, the source gives them in different places.
Columns and labels:
[1] = system: HBV; assay: Inhibition of HBV-replication in HepG2 2.2.15 cells (extracellular HBV DNA, PCR); type: cell-based, hepatitis B virus; settings: read-out: EC50, concentration required for 50% reduction of HBV DNA in the medium of the cells
Method: The antiviral efficacy of the compounds of the invention was investigated on HepG2 2.2.15 cells, a human hepatoblastoma cell line which has the replication-competent HBV genome stably integrated therein and produces infectious progeny viruses in a productive manner (Sells et al., Proc Natl Acad Sci USA 1987, 84: 1005-1009).
The above cells were cultured under standardized conditions as specified by Korba and Gerin, and the amount of extracellular viral DNA was determined (Korba et al., Antiviral Res 1992, 19: 55-70).
Following passaging, the HepG2 2.2.15 cells were seeded at a density of about 60% in 12-well plates and cultured to confluence in 10% FBS Dulbecco MEM. Thereafter, the medium was changed to 2% FBS, and the cells were cultured for another 24 hours.
After another change of medium, the cells were treated with varying concentrations of compounds according to the invention. Every 24 hours the compounds were re-added together with the medium. On the 6th day of treatment, the cell supernatants were centrifuged off and stored at −20° C. until analysis of the HBV DNA was effected.
Following treatment of the culture supernatants with proteinase K, the extracellular viral DNA was amplified by means of PCR using the following primers (forward: 5′-CTCCAGTTCAGGAACAGTAAACCC-3′(SEQ ID NO. 1); reverse: 5′-TTGTGAGCTCAGAAAGGCCTTGTAAGTTGGCG-3′(SEQ ID NO. 2). The PCR products were separated on 1% agarose, stained with ethidium bromide and quantified using a Fluor-S™ Multimager (Biorad).
For calibration of the PCR reaction, serial dilutions of the pUC19 HBV and pTHBV plasmids with known genome equivalents (GE) were used, resulting in a lower detection limit of about 10^3 GE and a linearity between 10^3 and 10^5 GE.

[2] = system: HL-60 cells; assay: Cytotoxicity, inhibition of proliferation of HL-60 cells; type: cell-based, human; settings: for CD50, concentration producing 50% inhibition of cell proliferation: two days incubation; for antiproliferative activity: in words
Method: (§1) To this end, established cells of a human myeloid leukemia (HL-60) in RPMI medium, and the above-mentioned HepG2 cells in Dulbecco MEM, respectively, were incubated for two days using varying concentrations of compounds, and the proliferation rate of the cells was subsequently determined. The data were used to determine the concentration of compounds resulting in 50% inhibition of proliferation (CD50).

[3] = system: HepG2-cells; assay: Cytotoxicity, inhibition of proliferation of HepG2 cells; type: cell-based, human; settings: for CD50, concentration producing 50% inhibition of cell proliferation: two days incubation; for antiproliferative activity: in words
Method: as §1

[4] = system: HIV; assay: Inhibition of HIV replication; type: cell-based; settings: read-out: EC50 against HIV replication
[5] = molecular target: T1, HBV DNA polymerase (Hepatitis B virus genotype D subtype ayw, UniProt P03156); assay: Inhibition of endogenous HBV DNA polymerase by nucleoside triphosphates; type: biochemical; settings: virus particles from patient serum, 3H-dCTP, 1 h 37° C., read-out: IC50, 50% inhibition of the HBV DNA polymerase activity
T1 construct: the endogenous HBV DNA polymerase activity; from tissue; host or cells: serum of patients with untreated hepatitis B virus infection; virus particles purified by ultracentrifugation and lysed
Method: To determine the endogenous HBV DNA polymerase activity, about 100 ml of serum from patients with untreated hepatitis B virus infections from Charité, Berlin, (>10^7 HBV particles/ml), was centrifuged at 3000 rpm. Virus particles of the cleared serum were sedimented in a Beckman SW28 rotor at 25,000 rpm, 60 min. The virus pellet was suspended in 7 ml of TKM buffer (50 mM Tris-HCl, pH 7.5, 50 mM KCl, 5 mM MgCl2), layered over a step gradient of 10 ml each of 0.3 M, 0.6 M, 0.9 M saccharose in TKM buffer and centrifuged at 25,000 rpm for 20 hours.
The purified virus pellet was suspended in 250 μl TKM buffer, lysed by ultrasound, divided in aliquots and frozen at −80° C. (Davies et al., Antiviral Res 1996, 30: 133-145).
The HBV DNA polymerase assay contained in 30 μl about 2-4×10^8 purified virus particles (lysed beforehand additionally in 6% β-mercaptoethanol, 10% Igepal for 15 min at room temperature), 42 mM Tris-HCl, (pH 7.5), 34 mM MgCl2, 340 mM KCl, 22 mM β-mer-captoethanol, 0.4% Igepal, 70 μM TTP, dATP, dGTP and 1 μCi ^3HdCTP (=0.7 μM dCTP) (Matthes et al., Antimicrob Agents & Chemother 1991, 35: 1254-1257) and varying concentrations of β-L-N4-hydroxycytosine nucleoside triphosphates as inhibitors.
Following a one-hour incubation at 37° C., 20 μl of the assay volume was placed on paper filter, washed 5 times with 5% trichloroacetic acid and 0.1% Na pyrophosphate, and the ^3H-dCMP incorporated in the HBV DNA was subsequently measured in a Liquid Scintillation Counter.
Using the concentration-dependent inhibition curves of HBV DNA synthesis, the concentration of β-L-N4-hydroxycytosine nucleoside triphosphates resulting in 50% inhibition of the HBV DNA polymerase activity was determined.

[6] = system: HBV; settings: treatment of HBV infections; cited from earlier work
[7] = HepG2 2.2.15 cells, 6 days incubation, extracellular HBV DNA

T1 sequence (P03156 whole entry): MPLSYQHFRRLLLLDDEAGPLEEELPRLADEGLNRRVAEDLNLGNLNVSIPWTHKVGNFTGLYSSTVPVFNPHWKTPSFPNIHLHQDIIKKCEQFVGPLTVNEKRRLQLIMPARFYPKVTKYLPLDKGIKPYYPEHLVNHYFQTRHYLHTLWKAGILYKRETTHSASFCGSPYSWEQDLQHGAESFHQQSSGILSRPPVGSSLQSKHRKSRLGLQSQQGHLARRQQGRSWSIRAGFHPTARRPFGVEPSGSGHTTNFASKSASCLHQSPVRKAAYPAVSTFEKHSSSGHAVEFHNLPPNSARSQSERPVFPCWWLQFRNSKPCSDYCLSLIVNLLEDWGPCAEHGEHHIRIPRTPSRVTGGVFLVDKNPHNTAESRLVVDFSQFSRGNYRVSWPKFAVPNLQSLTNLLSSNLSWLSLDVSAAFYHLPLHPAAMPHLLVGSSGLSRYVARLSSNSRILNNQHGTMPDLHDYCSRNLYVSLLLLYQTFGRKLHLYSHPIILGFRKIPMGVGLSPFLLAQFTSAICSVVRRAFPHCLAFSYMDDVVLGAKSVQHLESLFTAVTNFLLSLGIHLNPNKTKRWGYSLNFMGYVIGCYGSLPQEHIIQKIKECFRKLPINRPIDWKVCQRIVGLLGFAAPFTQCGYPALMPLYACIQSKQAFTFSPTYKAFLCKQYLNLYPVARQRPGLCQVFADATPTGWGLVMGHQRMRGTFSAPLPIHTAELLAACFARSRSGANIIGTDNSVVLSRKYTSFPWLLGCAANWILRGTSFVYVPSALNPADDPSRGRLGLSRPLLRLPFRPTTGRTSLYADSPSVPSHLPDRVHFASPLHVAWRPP

Compound	CD50, concentration producing 50% inhibition of cell proliferation [2]	CD50, concentration producing 50% inhibition of cell proliferation [3]	EC50 [1, 7]	further results
Nc1ccn([C@@H]2CS[C@H](CO)O2)c(=O)n1 [3TC (lamivudine), β-L-2′,3′-dideoxy-3′-thiacytidine, reference compound]	2000 µM	1900 µM	–	EC50 ([1]; Hepatitis B virus, HepG2 2.2.15, 144 h): 100 nM
O=c1nc(NO)ccn1[C@H]1CS[C@@H](CO)O1 [Hy3TC, β-L-2′,3′-dideoxy-3′-thia-N4-hydroxycytidine]	1450 µM	1230 µM	500 nM	EC50 [4]: > 25 µM
O=c1nc(NO)c(F)cn1[C@H]1CS[C@@H](CO)O1 [HyFTC, β-L-2′,3′-dideoxy-3′-thia-5-fluoro-N4-hydroxycytidine]	1100 µM	975 µM	300 nM	–
Nc1nc(=O)n([C@@H]2C[C@@H](O)[C@H](CO)O2)cc1F [L-FCdR, β-L-5-fluorodeoxycytidine, reference compound]	–	–	1200 nM	–
O=c1nc(NO)ccn1[C@@H]1C[C@@H](F)[C@H](CO)O1 [L-FHyCdR, β-L-3′-fluoro-2′,3′-dideoxy-N4-hydroxycytidine]	4400 µM	820 µM	–	–
O=c1nc(NO)ccn1[C@@H]1C[C@@H](O)[C@H](CO)O1 [L-HyCdR, β-L-N4-hydroxydeoxycytidine]	460 µM	545 µM	3000 nM	–
O=c1nc(NO)c(F)cn1[C@@H]1C[C@@H](O)[C@H](CO)O1 [L-HyFCdR, β-L-5-fluoro-N4-hydroxydeoxycytidine]	1370 µM	920 µM	4500 nM	–
O=c1nc(NO)ccn1[C@H]1O[C@@H](CO)C=C1F [L-HyFddeC, β-L-2′,3′-didehydro-2′,3′-dideoxy-2′-fluoro-N4-hydroxycytidine]	1130 µM	1370 µM	< 100 nM	antiproliferative activity [2]: lost the antiproliferative activity; antiproliferative activity [3]: lost the antiproliferative activity
Cc1cn([C@@H]2C[C@@H](O)[C@H](CO)O2)c(=O)nc1NO [L-HyMetCdR, β-L-5-methyl-N4-hydroxydeoxycytidine]	600 µM	490 µM	–	–
O=c1nc(NO)ccn1[C@@H]1CC[C@H](CO)O1 [L-HyddC, β-L-2′,3′-dideoxy-N4-hydroxycytidine]	1600 µM	2250 µM	–	antiproliferative activity [2]: lost the antiproliferative activity; antiproliferative activity [3]: lost the antiproliferative activity
O=c1nc(NO)c(F)cn1[C@@H]1CC[C@H](CO)O1 [L-HyddFC, β-L-2′,3′-dideoxy-5-fluoro-N4-hydroxycytidine]	1860 µM	1580 µM	350 nM	–
O=c1nc(NO)ccn1[C@@H]1C=C[C@H](CO)O1 [L-HyddeC, β-L-2′,3′-didehydro-2′,3′-dideoxy-N4-hydroxycytidine]	>3500 µM	>5000 µM	50 nM	–
O=c1nc(NO)c(F)cn1[C@@H]1C=C[C@H](CO)O1 [L-HyddeFC, β-L-2′,3′-didehydro-2′,3′-dideoxy-5-fluoro-N4-hydroxycytidine]	–	–	< 100 nM	antiproliferative activity [2]: lost the antiproliferative activity; antiproliferative activity [3]: lost the antiproliferative activity
[N-]=[N+]=N[C@@H]1C[C@@H](n2ccc(NO)nc2=O)O[C@H]1CO [L-N3HyCdR, β-L-3′-azido-2′,3′-dideoxy-N4-hydroxycytidine]	2000 µM	1160 µM	–	–
Cc1cn([C@@H]2C[C@@H](O)[C@H](CO)O2)c(=O)[nH]c1=O [L-TdR, β-L-thymidine, reference compound]	–	–	–	EC50 ([1]; Hepatitis B virus, 144 h, HepG2 2.2.15 cells, 6 days incubation, extracellular HBV DNA): 300 nM
Nc1ccn([C@@H]2CC[C@H](CO)O2)c(=O)n1 [L-ddC, β-L-2′,3′-dideoxycytidine, reference compound]	–	–	250 nM	–
O=c1nc(NO)ccn1[C@@H]1CS[C@H](COP(=O)(O)OP(=O)(O)OP(=O)(O)O)O1 [Triphosphate of L-Hy3TC]	–	–	–	IC50 [5]: 150 to 650 nM and 650 nM
O=c1nc(NO)ccn1[C@@H]1C[C@@H](O)[C@H](COP(=O)(O)OP(=O)(O)OP(=O)(O)O)O1 [Triphosphate of L-HyCdR]	–	–	–	IC50 [5]: 6000 nM
Cc1cn([C@@H]2C[C@@H](O)[C@H](COP(=O)(O)OP(=O)(O)OP(=O)(O)O)O2)c(=O)nc1NO [Triphosphate of L-HyMetCdR]	–	–	–	IC50 [5]: 4000 nM
O=c1nc(NO)ccn1[C@@H]1CC[C@H](COP(=O)(O)OP(=O)(O)OP(=O)(O)O)O1 [Triphosphate of L-HyddC]	–	–	–	IC50 [5]: 150 to 650 nM and 550 nM
O=c1nc(NO)ccn1[C@@H]1C=C[C@H](COP(=O)(O)OP(=O)(O)OP(=O)(O)O)O1 [Triphosphate of L-HyddeC]	–	–	–	IC50 [5]: 150 to 650 nM and 280 nM
α-interferon	–	–	–	share of the patients in whom it is effective [6]: about 33%

— patent US20140031309A1, “Beta-L-N4 Hydroxycytosine Deoxynucleosides and their use as Pharmaceutical Agents in the Prophylaxis or Therapy of Viral Diseases” (MAX-DELBRUECK-CENTRUM FUER MOLEKULARE MEDIZIN, priority 2004, published 2014)
